Measurements taken from patent publication US9567347B2, “Use of small molecule inhibitors targeting the interaction between RAC GTPase and p67(phox)” (CHILDREN'S HOSPITAL MEDICAL CENTER, priority 2012, dated 2017).
Numbering of substitutions follows the chain as printed.

What was measured:
p67^phox mutation, R188A = target: T1, p67^phox mutation, R188A (Homo sapiens, UniProt P19878, R188A); experiment: microscale thermophoresis binding to p67phox R188A mutant; conditions: residue outside region critical for Rac1-GTP interaction
T1 construct: using the pET30-HIS p67(1-212) plasmid; His; made in house; host or cells: E. coli BL21(DE3)
T1 sequence (P19878 1-212 R188A): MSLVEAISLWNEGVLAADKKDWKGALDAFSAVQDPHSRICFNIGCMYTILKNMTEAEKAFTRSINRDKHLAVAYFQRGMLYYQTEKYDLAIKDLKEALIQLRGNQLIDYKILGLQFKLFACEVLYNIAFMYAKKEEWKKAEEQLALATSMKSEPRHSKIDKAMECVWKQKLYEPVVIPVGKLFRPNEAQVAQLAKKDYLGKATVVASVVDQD
Description: (§1) The p67^phox protein was expressed in BL21(DE3) bacteria (Stratagene) using the pET30-HIS p67(1-212) plasmid. Protein was purified using the QIAexpress Ni-NTA kit (Qiagen) or the GST Bind Resin Chromatography Kit (Novagen) for RacV12 and RacWT proteins. Mutagenesis was carried out using the Quick Change Lightening Site Directed Mutagenesis Kit (Stratagene).
(§2) Proteins were labeled for microscale thermophoresis using the Monolith NT Protein Labeling Kit Red (Nano Temper Technologies) as recommended by the manufacturer. Binding reactions were carried out using the Monolith NT. 115 (Nano Temper Technologies). Binding data was analyzed using Graphpad Prizm to estimate Kd values. The arbitrary fluorescence value from the thermophoresis plots for the smallest compound titration was subtracted from every other data point (Delta depletion) prior to normalization to a Vmax of 100. In thermophoresis plots where there was no binding, a curve could not be fit and therefore no Vmax could be assigned. In these instances the highest delta depletion value was set to 100 and all data were normalized accordingly.
(§3) Next, to perform a competition binding, p67^phox protein was first incubated with either 5 μM Phox-I1 or an equal volume of vehicle control for 15 min prior to titration of purified Rac1V12 protein. […]

NOX4 = target: T2, NOX4 (Homo sapiens, UniProt Q9NPH5); experiment: NOX4 mediated ROS production, luminol chemiluminescence with HRP; assay type: cell-based, mouse; conditions: 10 μM, 30 min
T2 construct: expressed in transfected cells; host or cells: primary mouse neutrophils (C57Bl/6 bone marrow), Amaxa nucleofection
T2 sequence (Q9NPH5 1-578): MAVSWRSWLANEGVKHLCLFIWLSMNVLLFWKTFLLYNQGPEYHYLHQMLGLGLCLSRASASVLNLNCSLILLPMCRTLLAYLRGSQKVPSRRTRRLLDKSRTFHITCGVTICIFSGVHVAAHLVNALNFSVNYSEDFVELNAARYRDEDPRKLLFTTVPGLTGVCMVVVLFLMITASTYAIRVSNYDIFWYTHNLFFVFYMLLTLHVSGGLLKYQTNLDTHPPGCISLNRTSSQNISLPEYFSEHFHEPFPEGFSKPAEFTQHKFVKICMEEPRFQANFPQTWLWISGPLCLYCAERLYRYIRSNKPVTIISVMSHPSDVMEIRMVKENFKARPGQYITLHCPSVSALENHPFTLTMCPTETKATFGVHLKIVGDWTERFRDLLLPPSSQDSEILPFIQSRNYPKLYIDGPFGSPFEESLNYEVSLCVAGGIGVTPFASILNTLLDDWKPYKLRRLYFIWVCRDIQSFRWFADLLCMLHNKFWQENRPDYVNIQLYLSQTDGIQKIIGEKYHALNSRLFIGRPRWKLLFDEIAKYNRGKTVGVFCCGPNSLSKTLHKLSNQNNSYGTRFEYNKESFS
T2 sequence (Q61462 1-192 partner): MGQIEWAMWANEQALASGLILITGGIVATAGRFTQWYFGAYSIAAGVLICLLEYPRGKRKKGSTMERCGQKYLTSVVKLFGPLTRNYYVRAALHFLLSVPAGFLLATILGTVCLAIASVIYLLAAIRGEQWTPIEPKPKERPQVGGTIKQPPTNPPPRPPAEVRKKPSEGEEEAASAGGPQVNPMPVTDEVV
Description: Primary mouse neutrophils were suspended in 100 μl NucleofectorR solution with 10 μg plasmid pCDNA3-NOX4 encoding NOX4 or mock vector. Cells were transfected using a Cell Line V NucleofactorTMR kit (Amaxa Biosystem, Amaxa Inc.) and the NucleofectorTM program Y-001. Cells were recovered at 37° C. for 2 hours and subjected to the luminol chemiluminescence assay using 10 μM L012 and HRP (0.005 U·mL^−1) to record ROS produced by NOX4 expression.
Phox-I1 was then applied to primary murine neutrophils expressing the constitutively active NOX4. […] To further rule out that Phox-I1 and Phox-I2 may simply act as scavengers of ROS, dHL-60 cells were pre-stimulated with fMLP for 30 min prior to treatment with Phox-I1 or Phox-I2.

p67R38Q = target: T3, p67R38Q (Homo sapiens, UniProt P19878, R38Q); experiment: microscale thermophoresis binding to p67phox R38Q mutant; conditions: residue critical for Rac1-GTP binding
T3 construct: using the pET30-HIS p67(1-212) plasmid; His; made in house; host or cells: E. coli BL21(DE3)
T3 sequence (P19878 1-212 R38Q): T1 sequence (P19878 1-212 R188A) with R38Q, A188R
Description: as §1, §2, §3

COc1ccc2c(c1)C1C=C(c3ccccc3)NN1C(c1cccc([N+](=O)[O-])c1)O2 (stereo not drawn) [Phox-I1]
binding to p67^phox R188 mutant (p67^phox mutation, R188A): retained the binding activity
NOX4 ROS production (NOX4): unresponsive
binding to p67^phox R38 mutant (p67R38Q): disrupted the binding ability
